In series [1] the test system is C57BL/6 mice. Description: EAE induced with MOG 35-55 in C57BL/6 mice (clinical, histopathology). The series is classed as in vivo. As to the method:
Estrogen treatment. Sixty-day release pellets containing 2.5 mg of 17β-estradiol (E2) or vehicle were implanted subcutaneously (s.c) in the scapular region behind the neck using a 12-gauge trochar as described by the manufacturer (Innovative Research of America, Sarasota, Fla.). The mice were implanted one week prior to immunization with MOG 35-55. The concentration of E2 expected in the serum is between 1,500-2,000 pg/ml, which is approximately 5 times less than the levels found during pregnancy.
Induction of EAE. C57BL/6 and cytokine deficient mice were inoculated s.c in the flanks with 0.2 ml of an emulsion containing 200 μg of MOG 35-55 in saline and an equal volume of complete Freund's Adjuvant (CFA) containing 400 μg of Mycobacterium tuberculosis H37RA (Difco Laboratories, Detroit, Mich.). Disease induction required i.v. administration of pertussis toxin on the day of immunization (25 ng/mouse) and 2 days later (67 ng/mouse). The mice were assessed daily for clinical signs of EAE according to the 7 point scale described in Example I.
Histopathology. Histopathologic assessment of spinal column section was performed essentially as described in Example I, except that sections were stained with either luxol fast blue-periodic acid schiff-hematoxylin or silver nitrate prior to analysis.
Statistical analysis. Significant differences in incidence and mortality between untreated and E2 treated mice were assessed by Chi-square analysis. Difference in onset was determined using the two-tailed Student t test. Differences in peak score and cumulative disease index (CDI) were assessed by the Mann-Whitney test. Statistical significance of the frequency of cytokine secreting cells was analyzed using Student's t test for comparisons of two means. Differences in the expression of chemokine and cytokine mRNA were also determined using the Student t test. Values of p<0.05 were considered significant.

Series [2] concerns spinal cord mRNA. As to the kind of experiment: RNase protection assay of chemokine, chemokine receptor and cytokine mRNA in spinal cords of Tg females with EAE. The series is classed as in vivo, mice. The note with it: 0.36 mg pellet. Here is the method: RNase protection assay. Total RNA was extracted from frozen spinal cords or lymph node cells using the STAT-60 reagent (Tel-Test, Inc., Friendswood, Tex.). Chemokine expression was determined by using the RiboQuant RPA kit (PharMingen) according to the manufacturer's instructions. A multiprobe set detected the following chemokine transcripts: C—X—C chemokines: MIP-2 and IP-10; C—C chemokines: RANTES, MIP-1α, MCP-1, and TCA-3; and C chemokine: Ltn. The chemokine receptor set detected the following transcripts: CCR1, CCR1b, CCR2, CCR3, CCR4, CCR5. Using RPA multiprobe it was possible to detect the following cytokines: IL-4, IL-10, TNF-α, LTβ, IFN-γ. The sample loading was normalized by the housekeeping gene, L32, included in each template set. RPA analysis was performed on […] total RNA hybridized with probes labeled with [^32P]UTP. After digestion of ssRNA, the RNA pellet was solubilized and resolved on a 5% sequencing gel. Controls included the probe set hybridized to transfer RNA only, appropriate control RNA which serves as integrity control for the RNA sample, and yeast tRNA as a background control. For quantification, gels were exposed by phosphorimaging (Bio-Rad Laboratories, Hercules, Calif.) and radioactivity in individual bands (after background subtraction) in comparison with L32 was assessed with Quantity One software (Bio-Rad Laboratories, Hercules, Calif.).
To optimize detection of clinically-related changes, chemokine expression was compared in 17β-estradiol protected versus sham pellet implanted mice during the peak acute phase of disease (16-17 days after immunization with MBP-Ac1-11 peptide/CFA) and during the chronic phase (28 days after immunization). […] A quantitative method—the RNase protection assay—was employed to examine RNA synthesis for the following chemokines: RANTES, MIP-1α, MCP-1, and TCA-3 (C—C-subfamily); and MIP-2 and IP-10 (C—X—C-subfamily). The tissue sample for RPA was prepared by homogenization of whole spinal cord and total cellular RNA was extracted.

A short description of series [3]: Serum 17β-estradiol measured by RIA in Tg mice. The series is classed as in vivo. The note with it: 0.36 mg pellet. As to the method: Androgen and estrogen detection. Mice were bled by cardiac puncture and the blood was allowed to clot at 4° C. overnight. The samples were centrifuged, and the sera collected and stored at −80° C. until hormone analysis was performed. Serum levels of estrogen were determined by radioimmunoassay (RIA) after Sephadex LH-20 column chromatography, as described in Roselli et al., Endocrine 64:139 (1996). All samples were analyzed in a single assay.
17β-estradiol treatment. For 17β-estradiol hormone therapy, 3-mm pellets containing 0.36 mg of 17β-estradiol (Innovative Research of America, Sarasota, Fla.), expected to provide physiological equivalence of the estrus cycle (150-200 pg/ml in serum) over 60 days, were implanted s.c. on the animal's back 7 days before induction of EAE. […] The 17β-estradiol pellets provide continuous controlled release of a constant level of hormone over a period of 60 days. Serum concentrations of 17β-estradiol were evaluated in representative mice from each group. Sham treated mice had variable levels of 17β-estradiol that reflected both estrus and diestrus mice (ranging from about 20 to 200 pg/ml, on average about 50 pg/ml). […] E2-treated intact mice were also variable (about 200-400 pg/ml), reflecting the combination of native estrus/diestrus levels plus the exogenous estradiol from the pellet, whereas the E2-treated OVX mice were somewhat lower (about 150-200 pg/ml).

For `C[C@]12CC[C@@H]3c4ccc(O)cc4CC[C@H]3[C@@H]1CC[C@@H]2O` [17β-estradiol], in series [1] (B6, 2.5 mg pellet), the CDI was 15.1 ± 17.0, the Incidence is on record as 19/31, the Mortality is 0/31 and the Onset is reported as 20.8 ± 3.7. The “Peak Score” value in series [1] (B6, 2.5 mg pellet) is recorded as 4.2 ± 1.2. For the same molecule, in series [1] (C57BL/6, 2.5 mg pellet, spinal cord), the “Inflammatory foci/section” value amounted to 0.0 ± 0.0 Foci/Section. The “LT-β, TNF-α and IFN-γ message in spinal cord at peak of EAE” value in series [2] is listed as “significantly inhibited”. Moreover, in series [2] (intact Tg females, peak of disease p<0.001), the “chemokine mRNA expression in spinal cord (RANTES, MIP-1α, MIP-2, IP-10, MCP-1)” value is “profoundly lower levels”. In series [2] (ovariectomized females), the “chemokine mRNA expression in spinal cord” value is “strongly inhibited”. Further, the “mRNA levels for CCR1, CCR2 and CCR5 in spinal cord” value in series [2] (p<0.001) was “strongly inhibited”. In addition, the “serum 17β-estradiol” value in series [3] (OVX Tg mice) lay in the range of 100 to 200 pg/mL. Besides, the “serum 17β-estradiol” value in series [3] (OVX Tg mice, listed as E2) lay in the range of 150 to 200 pg/mL. Besides, the “serum 17β-estradiol” value in series [3] (intact Tg mice (pellet plus native hormone)) was 150 to 400 pg/mL. Moreover, in series [3] (intact Tg mice (pellet plus native hormone), listed as E2), the “serum 17β-estradiol” value was in the range of 200 to 400 pg/mL.

Source of the values: patent US7579006B2, “Method of treating immune pathologies with low dose estrogen” (Oregon Health and Science University, priority 2000, dated 2009).
